From US6849660B1, “Antimicrobial biaryl compounds” (ISIS Pharmaceuticals, Inc., priority 2000, dated 2005) come the findings set out here.

For assay [1], the system named is E. coli S30 bacterial extract. Kind of assay: Coupled bacterial transcription/translation assay (luciferase reporter). The class given is biochemical. How it is done:
Coupled Bacterial Transcription/Translation Assay. The DNA template, pBestLuc™ (Promega), is a plasmid containing a reporter gene for firefly luciferase fused to a strong tac promoter and ribosome binding site. Messenger RNA from 1 μg pBestLuc was transcribed and translated in E. coli S30 bacterial extract in the presence or absence of test compound. Compounds were tested in a black 96 well microtiter plate with an assay volume of 35 μL. Each test well contained: 5 μL test compound, 13 μL S30 premix (Promega), 4 μL 10× complete amino acid mix (1 mM each), 5 μL E. coli S30 extract and 8 μL of 0.125 μg/μL pBestLuc™. The transcription/translation reaction was incubated for 35 minutes at 37° C. followed by detection of functional luciferase with the addition of 30 μL LucLite™ (Packard). Light output was quantitated on a Packard TopCount.

A further assay has as its system E. coli. Description: Minimum inhibitory concentration (MIC), E. coli. The assay is classed as cell-based. Conditions: Escherichia coli, Table 6. The protocol: (§1) Bacterial Strains. The Streptococcus pyogenes strains, Klebsiella pneumoniae, Escherichia coli, Staphylococcus aureus, Enterococcus faecalis used in the antibacterial activity studies ATCC 14289, 49399, 13883, 25922, 13709, 29212, respectively, are obtained from the American Type Culture Collection, Rockville, Md. The strain E. coli imp- is a mutant strain of wild type E. coli with increased outer membrane permeability and was grown in LB broth at 37 ° C. S. pyogenes strain is grown in Todd-Hewitt broth. S. aureus is grown in trypticase soy broth, E. faecalis in Todd-Hewitt broth, wild type E. coli and K. pneumoniae, in nutrient broth.
(§2) Determination of Minimum Inhibitory Concentrations (MICs). The assays were carried out in […] volume in duplicate in 96-well clear flat-bottom plates. The bacterial suspension from an overnight culture growth in appropriate medium was added to a solution of test compound in 4% DMSO in water. Final bacterial inoculum was approximately 10^5-10^6 CFU/well. The percent growth of the bacteria in test wells relative to that observed for a well containing no compound was determined by measuring absorbance at 595 nm (A595) after 24 h. […] Both ampicillin and tetracycline is used as antibiotic-positive controls in each screening assay for S. pyogenes, E. coli imp-, E. coli, S. aureus, E. faecalis, K pneumoniae and P. vulgaris. […]

Another assay deals with E. hirae. Kind of assay: Minimum inhibitory concentration (MIC), E. hirae. The class given is cell-based. Conditions: Enterococcus hirae, Table 6. The protocol:
(§3) Determination of Minimum Inhibitory Concentrations (MICs). The assays were carried out in […] volume in duplicate in 96-well clear flat-bottom plates. The bacterial suspension from an overnight culture growth in appropriate medium was added to a solution of test compound in 4% DMSO in water. Final bacterial inoculum was approximately 10^5-10^6 CFU/well. The percent growth of the bacteria in test wells relative to that observed for a well containing no compound was determined by measuring absorbance at 595 nm (A595) after 24 h. […] Both ampicillin and tetracycline is used as antibiotic-positive controls in each screening assay for S. pyogenes, E. coli imp-, E. coli, S. aureus, E. faecalis, K pneumoniae and P. vulgaris. Ciprofloxacin is used as an antibiotic positive control in each screening assay for P. aeruginosa.

For a further assay, the system named is S. aureus. Description: Minimum inhibitory concentration (MIC), S. aureus. The assay is classed as cell-based. Particulars: Staphylococcus aureus, Table 6. The protocol:
as §1, §2

The next assay has as its system K. pneumoniae. Description: Minimum inhibitory concentration (MIC), K. pneumoniae. The class given is cell-based. Conditions: Klebsiella pneumoniae, Table 6. The protocol:
as §1, §2

A further assay relates to S. pyogenes. Kind of assay: Minimum inhibitory concentration (MIC), S. pyogenes. Particulars: Streptococcus pyogenes. The class given is cell-based. How it is done:
as §1, §3

For assay [2], the system named is 58 nucleotide fragment of E. coli 23S ribosomal RNA (23S rRNA). Kind of assay: Mass-spec binding assay (ESI-FTICR-MS). Particulars: Table 5, amino acid spacer compounds; read-out: approx. Kd. The protocol:
Binding affinity of test compounds to a 58 nucleotide fragment of E. coli 23S ribosomal RNA (23S rRNA) was determined using electrospray ionization Fourier transform ion cyclotron resonance mass spectrometry (ESI-FTICR-MS). The structure of the 23S rRNA fragment and its preparation is described by Conn et al (Science, 1999, 284(5417):1171) and Hinck et al (J. Mol. Biol., 1997, 274(1): 101) both incorporated herein by reference. The mass spec assay determined the exact chemical composition of ligands that bound to the target rRNA and determined relative or absolute dissociation (KD) of ligands for the target. In the first step of the assay, a mixture of 23S rRNA target and test compound were moved from solution into the gas phase by electrospray ionization. The FT-ICR mass spectrometer served as a parallel set of “scales”, simultaneously measuring the exact molecular masses of the small molecules that bound to the RNA with great accuracy. The mass measurement error for an RNA-ligand complex weighing 10 kDa equals the mass of an electron. At this level of mass accuracy, each compound in the mixture was “labeled” by its molecular formula and exact molecular mass. […]

Setting [3] is: S. pyogenes, Table 6, read-out: MIC.
The mark [4] stands for this setting: Table 5, amino acid spacer compounds.

Values after ≈ are worked out from the molar mass of the structure shown. Like-named read-outs stand apart in the source and are kept apart here.

The IC50 is the concentration at which inhibition is half-maximal. High values mean lower potency, low ones higher potency. In the case of `O=C(Nc1cccc(-c2nc(C(=O)N3CCNCC3)cs2)c1)c1ccc2[nH]c(=O)c(=O)[nH]c2c1`, the IC50 in assay [1] (Table 4, heteroaryl compounds) was 75 µM.

For orientation: MIC means the smallest concentration in the dilution series that meets the test's criterion for growth inhibition. As for `CCn1cc(C(=O)Nc2cccc(-c3ccc(C(=O)N4CCNCC4)s3)c2)c(=O)c2ccc(C)nc21`, the MIC against E. coli was in the range of 50 to 100 µM (≈ 25.1 to 50.2 µg/mL); against E. hirae it was 50 to 100 µM (≈ 25.1 to 50.2 µg/mL); in the assay on S. aureus it was 50 to 100 µM (≈ 25.1 to 50.2 µg/mL); in the assay with K. pneumoniae, 50 to 100 µM (≈ 25.1 to 50.2 µg/mL); in the assay on S. pyogenes (setting [3]) it was 25 to 50 µM (≈ 12.5 to 25.1 µg/mL). Compound `O=C(CNC(=O)c1ccc2[nH]c(=O)c(=O)[nH]c2c1)Nc1cccc(-c2ccc(C(=O)N3CCNCC3)s2)c1` came in with an IC50 in assay [1] (Table 4, heteroaryl compounds) of 100 µM.

In assay [1] (Table 4, heteroaryl compounds), `O=C(Nc1ccc(-c2ccc(C(=O)N3CCNCC3)s2)cc1)c1ccc2[nH]c(=O)c(=O)[nH]c2c1` registered an IC50 of 50 µM.

For `O=C(Nc1ccc(-c2ccc(C(=O)Nc3ccc(C(=O)N4CCNCC4)cc3)s2)cc1)c1ccc2[nH]c(=O)c(=O)[nH]c2c1`, the IC50 in assay [1] (Table 4, heteroaryl compounds) was determined as 30 µM. Against the preceding compound, the IC50 is about 1.7-fold lower. The compound `O=c1[nH]c2ccc(S(=O)(=O)Nc3cccc(-c4ccc(CN5CCNCC5)s4)c3)cc2[nH]c1=O` gave an IC50 in assay [1] (Table 4, heteroaryl compounds) of 80 µM.

As a reminder, the Kd is a measure of binding affinity in units of concentration. In the case of `O=C(Nc1cccc(-c2ccc(C(=O)NCCC(=O)N3CCNCC3)s2)c1)c1ccc2[nH]c(=O)c(=O)[nH]c2c1` [Structure 3], the Kd in assay [2] amounted to 139 µM. The IC50 in assay [1] (setting [4]) is 35 µM.

In assay [1] (Table 4, heteroaryl compounds), `O=C(Nc1cccc(-c2ccc(S(=O)(=O)N3CCNCC3)s2)c1)c1ccc2[nH]c(=O)c(=O)[nH]c2c1` had an IC50 of 35 µM. This lies in the double-digit micromolar range. The compound `NCCC(NC(=O)c1ccc(-c2cccc(NC(=O)c3ccc4[nH]c(=O)c(=O)[nH]c4c3)c2)s1)C(=O)N1CCNCC1` (centres unmarked) came in with an MIC in the assay with S. pyogenes of 50 to 100 µM (≈ 28.8 to 57.6 µg/mL). In turn, `O=C(c1ccc(-c2cccc(NS(=O)(=O)c3ccc4[nH]c(=O)c(=O)[nH]c4c3)c2)s1)N1CCNCC1` gave an IC50 in assay [1] (Table 4, heteroaryl compounds) of 80 µM. The compound `O=C(Nc1cccc(-c2ccc(C(=O)N3CCNCC3)s2)c1)c1ccc2[nH]c(=O)c(=O)[nH]c2c1` [drawing 51] returned a concentration for half-maximal inhibition (IC50) in assay [1] (Table 4, heteroaryl compounds) of 25 µM. This IC50 is about 3.2-fold lower than that of the compound before. The same measure, in the same setting: the same measure for `O=C(Nc1cccc(-c2ccc(C(=O)N3CCNCC3)o2)c1)c1ccc2[nH]c(=O)c(=O)[nH]c2c1`: 25 µM.

Consider `O=C(Nc1cccc(-c2ccc(C(=O)N3CCC[C@H]3C(=O)N3CCNCC3)s2)c1)c1ccc2[nH]c(=O)c(=O)[nH]c2c1`, for which, in assay [1] (Table 4, heteroaryl compounds), the IC50 is 25 µM.

As to `O=C(Nc1ccc(-c2ccc(CN3CCNCC3)s2)cc1)c1ccc2[nH]c(=O)c(=O)[nH]c2c1`, the IC50 in assay [1] (Table 4, heteroaryl compounds) worked out at 55 µM. Turning to `O=C(Nc1cccc(-c2ccc(C(=O)N3CCNCC3)s2)c1)c1ccc2[nH]c(=O)c(=O)[nH]c2c1` [Structure 1], the Kd in assay [2] is 79 µM. The compound also yielded an IC50 in assay [1] (setting [4]) of 25 µM. `CCn1cc(C(=O)Nc2ccc(-c3ccc(C(=O)N4CCNCC4)s3)cc2)c(=O)c2ccc(C)nc21`: the MIC against E. coli and in the assay with S. pyogenes (setting [3]) was 50 to 100 µM (≈ 25.1 to 50.2 µg/mL) each time.
